Paper PMC6152004 (Molecules : A Journal of Synthetic Chemistry and Natural …, 2017)
Read-outs that look alike come from different tables or passages of the source.

Tests used:
AChE = details: cited from earlier work; for IC50: read-out: AChE IC50
BChE = details: read-out: BChE IC50; cited from earlier work
[1] = target: T1, human blood acetylcholinesterase (AChE) (Homo sapiens, UniProt P22303); assay: AChE inhibition, modified Ellman's method, red blood cell lysate; type: biochemical
T1 construct: Red blood cell lysate was used as a source of AChE and human plasma as a source of BChE; from tissue; host or cells: human erythrocytes (lysate) from freshly drawn blood of healthy volunteers
T1 sequence (P22303 32-617 isoform P22303-2 limits assumed): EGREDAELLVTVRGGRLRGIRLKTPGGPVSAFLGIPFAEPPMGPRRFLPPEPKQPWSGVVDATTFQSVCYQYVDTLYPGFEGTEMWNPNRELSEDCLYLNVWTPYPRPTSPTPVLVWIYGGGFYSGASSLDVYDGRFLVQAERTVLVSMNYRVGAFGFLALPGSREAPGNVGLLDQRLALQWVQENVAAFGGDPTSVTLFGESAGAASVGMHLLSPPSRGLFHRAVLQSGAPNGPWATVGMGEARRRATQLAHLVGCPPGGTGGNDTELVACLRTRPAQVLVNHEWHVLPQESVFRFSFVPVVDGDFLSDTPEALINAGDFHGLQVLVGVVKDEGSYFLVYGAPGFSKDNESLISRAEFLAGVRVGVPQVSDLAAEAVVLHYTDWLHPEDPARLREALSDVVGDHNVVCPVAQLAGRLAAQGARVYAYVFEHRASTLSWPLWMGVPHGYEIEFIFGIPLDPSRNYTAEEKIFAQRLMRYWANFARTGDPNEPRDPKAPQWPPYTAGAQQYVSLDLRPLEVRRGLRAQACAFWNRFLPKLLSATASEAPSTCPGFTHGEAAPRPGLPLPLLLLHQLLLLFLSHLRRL

[2] = target: T2, recombinant prolyl oligopeptidase (POP) (Homo sapiens, UniProt P48147); assay: Prolyl oligopeptidase assay, substrate Z-Gly-Pro-p-nitroanilide; type: biochemical
T2 construct: purchased Sigma-Aldrich (Prague, Czech Republic)
T2 sequence (P48147 1-710): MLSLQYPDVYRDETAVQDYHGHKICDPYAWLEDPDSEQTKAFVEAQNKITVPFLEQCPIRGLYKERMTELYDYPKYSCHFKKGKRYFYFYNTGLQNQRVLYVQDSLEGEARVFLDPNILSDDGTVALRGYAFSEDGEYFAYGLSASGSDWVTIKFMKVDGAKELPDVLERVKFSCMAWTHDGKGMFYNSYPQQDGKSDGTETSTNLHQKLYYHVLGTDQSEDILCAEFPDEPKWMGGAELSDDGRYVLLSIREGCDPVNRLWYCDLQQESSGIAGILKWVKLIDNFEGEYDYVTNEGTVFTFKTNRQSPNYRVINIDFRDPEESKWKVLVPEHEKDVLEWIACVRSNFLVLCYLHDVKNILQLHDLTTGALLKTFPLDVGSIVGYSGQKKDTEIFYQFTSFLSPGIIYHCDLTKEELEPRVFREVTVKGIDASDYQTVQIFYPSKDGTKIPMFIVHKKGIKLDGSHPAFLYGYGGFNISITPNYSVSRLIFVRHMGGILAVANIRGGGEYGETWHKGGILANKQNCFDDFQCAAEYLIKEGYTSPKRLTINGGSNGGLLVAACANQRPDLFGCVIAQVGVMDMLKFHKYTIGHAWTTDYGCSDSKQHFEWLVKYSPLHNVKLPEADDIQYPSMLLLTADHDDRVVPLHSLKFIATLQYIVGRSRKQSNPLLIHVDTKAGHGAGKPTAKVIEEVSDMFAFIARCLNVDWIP

[3] = target: human plasma butyrylcholinesterase (BChE) (Homo sapiens, UniProt P06276); assay: biochemical
Chain of human plasma butyrylcholinesterase (BChE) (P06276 29-602): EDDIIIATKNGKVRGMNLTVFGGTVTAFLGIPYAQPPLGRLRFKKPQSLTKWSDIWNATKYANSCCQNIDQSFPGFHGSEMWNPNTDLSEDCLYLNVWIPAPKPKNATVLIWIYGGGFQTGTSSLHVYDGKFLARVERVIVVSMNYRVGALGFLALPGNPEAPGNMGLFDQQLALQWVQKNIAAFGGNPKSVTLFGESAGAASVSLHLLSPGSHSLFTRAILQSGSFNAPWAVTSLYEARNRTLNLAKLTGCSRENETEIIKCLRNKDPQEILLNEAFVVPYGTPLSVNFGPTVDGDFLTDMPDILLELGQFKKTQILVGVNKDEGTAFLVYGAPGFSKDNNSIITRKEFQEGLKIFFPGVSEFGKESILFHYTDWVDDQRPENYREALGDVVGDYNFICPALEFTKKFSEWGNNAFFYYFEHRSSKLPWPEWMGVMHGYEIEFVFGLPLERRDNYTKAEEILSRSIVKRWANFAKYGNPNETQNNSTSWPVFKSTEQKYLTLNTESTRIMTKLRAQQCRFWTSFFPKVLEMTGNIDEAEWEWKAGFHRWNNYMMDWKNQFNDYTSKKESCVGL

[4] = target: T2, recombinant prolyl oligopeptidase (POP); details: tested previously; cited from earlier work
[5] = isolated from Fumaria vaillantii, review of Sener and Orhan

| Compound | IC50 (AChE) | IC50 [1] | IC50 [3] | also measured |
| --- | --- | --- | --- | --- |
| (–)-californidine | 36.7 ± 0.9 µM | – | – | – |
| COc1ccc(C[C@H]2c3cc(O)c(OC)cc3CCN2C)cc1O [(+)-reticuline] | > 220 µM | – | – | IC50 (BChE): 33.6 ± 3 µM |
| COc1ccc2c(c1OC)CN(C)CCc1cc3c(cc1C(=O)C2)OCO3 [Compound 4, allocryptopine] | – | 250 ± 25 µM | 530 ± 28.2 µM | IC50 (AChE; [5]): 1.3 µM; IC50 [2]: > 1000 µM |
| COc1cc2c(cc1OC)[C@@H]1Cc3cc(OC)c(OC)cc3[C@H](C2)N1C [Compound 3, (–)-argemonine] | – | > 1000 µM | 885 ± 119 µM | IC50 [2]: 337 ± 83.1 µM |
| COc1cc2c(cc1O)[C@@H]1Cc3cc4c(cc3[C@H](C2)N1C)OCO4 [(–)-caryachine] | 19.6 ± 0.4 µM | – | – | – |
| COc1cc2c(cc1O)C(Cc1ccc(O)cc1)N(C)CC2 (single isomer, unassigned; (+)) [(+)-N-methylcoclaurine] | > 220 µM | – | – | IC50 (BChE): 15 ± 1.4 µM |
| COc1cc2c(cc1OC)[C@@H]1Cc3ccc(OC)c(O)c3[C@H](C2)N1C [Compound 5, (–)-platycerine] | – | 224 ± 19.6 µM | > 1000 µM | IC50 [4]: 687 ± 74 µM |
| COc1cc2c(cc1O)[C@@H]1Cc3ccc(OC)c(O)c3[C@H](C2)N1C [Compound 6, (–)-munitagine] | – | 62.3 ± 5.8 µM | 837 ± 23 µM | IC50 [2]: 277 ± 31.3 µM |
| COc1ccc(CC2c3cc4c(cc3CCN2C)OCO4)c(C=O)c1OC (single isomer, unassigned; (+)) [canadaline, (+)-canadaline] | 20.1 µM | – | – | – |
| protopine [Compound 2] | – | – | – | Type of AChE inhibition (AChE): dose-dependent, specific, reversible and competitive AChE inhibitor; IC50 (AChE; [5]): 1.8 µM |
| COc1cc2c(cc1O)[C@@H]1Cc3cc(OC)c(OC)cc3[C@H](C2)N1C [Compound 7, (–)-norargemonine] | – | 205 ± 11.7 µM | > 1000 µM | – |
